Assays:
PACA-2 = test: MTS Assay (cell growth inhibition), PACA-2; format: cell-based; conditions: PACA-2 cells, 72 hours with test compound; concentration not given
Method: (§1) Cells were maintained at 37° C., 5% CO2 in DMEM media supplemented with 1% fetal bovine serum, penicillin/streptomycin and fungizone (Invitrogen). Cells were seeded into 96-well tissue culture plates at 3000 per well and cultured at 37° C. for 18 hours. Test compounds were dissolved and diluted to 300× in DMSO then diluted 1:40 in DMEM. Cells were incubated with test compounds for 72 hours followed by incubation with tetrazolium compound (3-(4,5-dimethylthiazol-2-yl)-5-(3-carboxymethoxyphenyl)-2-(4-sulfophenyl)-2H-tetrazolium, inner salt; MTS) and the electron coupling reagent, phenazine methosulfate (PMS) for 4 hours. […] The ability of compounds to inhibit cell growth in this assay is correlated with the reduction of dehydrogenase enzyme activity found in metabolically active cells. The measurement of the absorbance of the formazan was assessed using an ENVISION™ (Perkin Elmer) microplate reader at 492 nm. The calculated IC50 value is the concentration of the test compound that causes a 50% decrease in the absorbance.

Tec kinase = target: T1, Tec kinase (Homo sapiens, UniProt P42680); test: Tec Kinase Activity Assay; format: biochemical; conditions: 75 μM ATP, Pyk-2 substrate; compound concentration not given
T1 sequence (P42680 1-631): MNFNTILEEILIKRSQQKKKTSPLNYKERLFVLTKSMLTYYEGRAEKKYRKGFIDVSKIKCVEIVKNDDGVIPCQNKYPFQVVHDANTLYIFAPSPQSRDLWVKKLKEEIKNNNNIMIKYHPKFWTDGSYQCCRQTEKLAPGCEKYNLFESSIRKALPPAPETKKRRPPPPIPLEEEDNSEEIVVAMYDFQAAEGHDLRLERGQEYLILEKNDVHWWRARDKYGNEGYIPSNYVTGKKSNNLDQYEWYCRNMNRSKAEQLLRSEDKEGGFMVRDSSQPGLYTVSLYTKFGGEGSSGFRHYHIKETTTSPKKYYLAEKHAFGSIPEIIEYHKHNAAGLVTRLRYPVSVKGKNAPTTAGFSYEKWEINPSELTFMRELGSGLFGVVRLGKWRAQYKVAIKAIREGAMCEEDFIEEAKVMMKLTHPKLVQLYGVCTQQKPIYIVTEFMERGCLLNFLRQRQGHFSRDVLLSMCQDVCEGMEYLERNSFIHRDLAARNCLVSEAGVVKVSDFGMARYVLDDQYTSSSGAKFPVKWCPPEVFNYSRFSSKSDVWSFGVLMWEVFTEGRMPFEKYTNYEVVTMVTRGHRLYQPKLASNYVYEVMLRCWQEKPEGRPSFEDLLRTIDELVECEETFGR
Method: The disclosed compounds were assayed for their ability to inhibit the activity of Tec kinase. Nunc Maxisorb plates were coated with streptavidin by overnight incubation with 100 μl per well of 1 μg/ml Streptavidin in DPBS. Prior to the start of the experiment, the plates were washed with TBST (3×200 μl) and blocked for at least 1 hour by adding 150 μl of 5% BSA/TBST. The plates were then washed with TBST (3×200 μl/well) and left dry immediately before the capture step.
The disclosed test compounds and controls (Staurosporine and Sutent) were prepared using the following assay buffer (50 mM Tris-HCl, 0.02 mg/ml BSA, 10 mM MgCl2, 0.1 mM Na3VO4, 1 mM EGTA, 75 μM ATP, 0.01% NP-40, 2 mM DTT in 10% glycerol/water) at 3× desired final concentration. 20 μl of the test compounds (or control) and 20 μl TEC (0.25 ng/μl) were rapidly added to a reaction plate. The plate was incubated for 30 minutes. 20 μl of Pyk-2 (0.5 ng/μl) was then added to the reaction plate. The plate was incubated at room temperature for two hours.
50 μl was transferred from the reaction plate to the streptavidin coated plate. The capture plate was incubated at room temperature for 30 minutes then washed with TBST 6 times. 100 μl/well of Cell Signaling anti-phospho tyrosine was added to the capture plate at a dilution of 1:3000 in 2% BSA/TBST. The plate was incubated for one hour at room temperature then washed with TBST 6 times. 100 μl/well of alkaline phosphatase tagged goat anti-mouse antibody was added to the capture plate at a dilution of 1:4000 in 2% BSA/TBST. The plate was incubated for one hour at room temperature then washed with TBST 6 times.
The fluorescent readout was initiated by the addition of 100 μl/well of Attophos reagent (6 mg/10 ml) and the reading was done on the Perkin Elmer Envision system.

Kato III = test: MTS Assay (cell growth inhibition), Kato III; format: cell-based; conditions: Kato III cells, 72 hours with test compound; concentration not given
Method: as §1

PC-3 = test: MTS Assay (cell growth inhibition), PC-3; format: cell-based; conditions: PC-3 cells, 72 hours with test compound; concentration not given
Method: as §1

MDA-MB 231 = test: MTS Assay (cell growth inhibition), MDA-MB 231; format: cell-based; conditions: MDA-MB 231 cells, 72 hours with test compound; concentration not given
Method: as §1

DLD-1 = test: MTS Assay (cell growth inhibition), DLD-1; format: cell-based; conditions: DLD-1 cells, 72 hours with test compound; concentration not given
Method: as §1

NCI-H1299 = test: MTS Assay (cell growth inhibition), NCI-H1299; format: cell-based; conditions: NCI-H1299 cells, 72 hours with test compound; concentration not given
Method: as §1

Structure (SMILES) | MTS cell kill data (% inhibition) PACA-2 (PACA-2) | Biochemical IC50 (% inhibition) Tec (Tec kinase) | MTS cell kill data (% inhibition) Kato III (Kato III) | MTS cell kill data (% inhibition) PC-3 (PC-3) | MTS cell kill data (% inhibition) MDA-MB 231 (MDA-MB 231) | MTS cell kill data (% inhibition) DLD-1 (DLD-1) | MTS cell kill data (% inhibition) NCI-H1299 (NCI-H1299)
Cc1cccc(C2c3[nH]c4ccccc4c3CCN2c2ncnc3[nH]cnc23)c1 (stereo not drawn) [Compound 11, 1-(3-methylphenyl)-2-(9H-purin-6-yl)-2,3,4,9-tetrahydro-1H-beta-carboline] | B (B = 50-79% inhibition) | C (C = <50% inhibition) | A (A = 80-100% inhibition) | C (C = <50% inhibition) | B (B = 50-79% inhibition) | A (A = 80-100% inhibition) | A (A = 80-100% inhibition)
Cc1cccc(C2c3[nH]c4ccccc4c3CCN2c2ncnc3[nH]ncc23)c1 (stereo not drawn) [Compound 12, 1-(3-methylphenyl)-2-(1H-pyrazolo[3,4-d]pyrimidin-4-yl)-2,3,4,9-tetrahydro-1H-beta-carboline] | C (C = <50% inhibition) | B (B = 50-79% inhibition) | A (A = 80-100% inhibition) | C (C = <50% inhibition) | B (B = 50-79% inhibition) | B (B = 50-79% inhibition) | B (B = 50-79% inhibition)
Clc1ccccc1C1c2[nH]c3ccccc3c2CCN1c1ncnc2[nH]cnc12 (stereo not drawn) [Compound 13, 1-(2-chlorophenyl)-2-(9H-purin-6-yl)-2,3,4,9-tetrahydro-1H-beta-carboline] | C (C = <50% inhibition) | B (B = 50-79% inhibition) | C (C = <50% inhibition) | C (C = <50% inhibition) | C (C = <50% inhibition) | C (C = <50% inhibition) | B (B = 50-79% inhibition)
c1ccc(CC2c3[nH]c4ccccc4c3CCN2c2ncnc3[nH]ccc23)cc1 (stereo not drawn) [Compound 14, 1-benzyl-2-(7H-pyrrolo[2,3-d]pyrimidin-4-yl)-2,3,4,9-tetrahydro-1H-beta-carboline] | B (B = 50-79% inhibition) | C (C = <50% inhibition) | A (A = 80-100% inhibition) | A (A = 80-100% inhibition) | A (A = 80-100% inhibition) | B (B = 50-79% inhibition) | A (A = 80-100% inhibition)
c1ccc(CC2c3[nH]c4ccccc4c3CCN2c2ncnc3[nH]cnc23)cc1 (stereo not drawn) [Compound 15, 1-benzyl-2-(9H-purin-6-yl)-2,3,4,9-tetrahydro-1H-beta-carboline] | C (C = <50% inhibition) | C (C = <50% inhibition) | B (B = 50-79% inhibition) | A (A = 80-100% inhibition) | A (A = 80-100% inhibition) | B (B = 50-79% inhibition) | A (A = 80-100% inhibition)
Nc1nc(N2CCc3c([nH]c4ccccc34)C2Cc2ccccc2)c2nc[nH]c2n1 (stereo not drawn) [Compound 16, 6-(1-benzyl-1,3,4,9-tetrahydro-2H-beta-carbolin-2-yl)-9H-purin-2-amine] | C (C = <50% inhibition) | C (C = <50% inhibition) | C (C = <50% inhibition) | C (C = <50% inhibition) | C (C = <50% inhibition) | C (C = <50% inhibition) | C (C = <50% inhibition)
c1ccc(CC2c3[nH]c4ccccc4c3CCN2c2ncnc3[nH]ncc23)cc1 (stereo not drawn) [Compound 17, 1-benzyl-2-(1H-pyrazolo[3,4-d]pyrimidin-4-yl)-2,3,4,9-tetrahydro-1H-beta-carboline] | B (B = 50-79% inhibition) | C (C = <50% inhibition) | B (B = 50-79% inhibition) | C (C = <50% inhibition) | C (C = <50% inhibition) | B (B = 50-79% inhibition) | B (B = 50-79% inhibition)
CC(C)c1ccc(C2c3[nH]c4ccccc4c3CCN2c2ncnc3[nH]ccc23)cc1 (stereo not drawn) [Compound 18, 1-(4-isopropylphenyl)-2-(7H-pyrrolo[2,3-d]pyrimidin-4-yl)-2,3,4,9-tetrahydro-1H-beta-carboline] | A (A = 80-100% inhibition) | C (C = <50% inhibition) | A (A = 80-100% inhibition) | C (C = <50% inhibition) | A (A = 80-100% inhibition) | A (A = 80-100% inhibition) | A (A = 80-100% inhibition)
CC(C)c1ccc(C2c3[nH]c4ccccc4c3CCN2c2ncnc3[nH]cnc23)cc1 (stereo not drawn) [Compound 19, 1-(4-isopropylphenyl)-2-(9H-purin-6-yl)-2,3,4,9-tetrahydro-1H-beta-carboline] | C (C = <50% inhibition) | C (C = <50% inhibition) | C (C = <50% inhibition) | C (C = <50% inhibition) | C (C = <50% inhibition) | C (C = <50% inhibition) | C (C = <50% inhibition)
CC(C)c1ccc(C2c3[nH]c4ccccc4c3CCN2c2nc(N)nc3[nH]cnc23)cc1 (stereo not drawn) [Compound 20, 6-[1-(4-isopropylphenyl)-1,3,4,9-tetrahydro-2H-beta-carbolin-2-yl]-9H-purin-2-amine] | B (B = 50-79% inhibition) | C (C = <50% inhibition) | A (A = 80-100% inhibition) | C (C = <50% inhibition) | B (B = 50-79% inhibition) | A (A = 80-100% inhibition) | A (A = 80-100% inhibition)
